Values joined by “and” are separate entries in the source; they are usually repeats but may differ in a detail not shown here. Identical values can stand only once. Toxic doses and inconclusive results are not listed.
Test system: CD2F1 mice, ip Colon 26 adenocarcinoma, median survival T/C
Assay: NCI In Vivo Anticancer Drug Screen. Data for tumor model Colon 26 Adenocarcinoma (intraperitoneal) in CD2F1 (CDF1) mice
Conditions: endpoint: median survival time, higher = longer survival
Protocol: The antitumor activity of compounds was measured in mice bearing transplantable tumors. Survival or tumor size were measured and the results are expressed as the measurement made in the treated group (T) divided by the measurement made in the vehicle treated control group (C). The tumor model used in this assay is Colon 26 Adenocarcinoma (intraperitoneal) in CD2F1 (CDF1) mice

With `O=C(O)C1(C(=O)O)CCC1.[NH2-].[NH2-].[Pt+2]` the T/C (dose: 5.85 mg/kg/injection, schedule: Q04DX003 (iv), vehicle: saline) was 96 % of control, the T/C (dose: 8.78 mg/kg/injection, schedule: Q04DX003 (iv), vehicle: saline) was 102 % of control and the T/C (dose: 10.0 mg/kg/injection, schedule: Q01DX004 (ip), vehicle: saline) was 110 % of control. The T/C (dose: 11.7 mg/kg/injection, schedule: Q01DX001 (ip), vehicle: saline) was 105 % of control, the T/C (dose: 13.2 mg/kg/injection, schedule: Q04DX003 (iv), vehicle: saline) was 105 % of control and the T/C (dose: 17.6 mg/kg/injection, schedule: Q01DX001 (ip), vehicle: saline) was 102 % of control. For the same molecule, the T/C (dose: 17.6 mg/kg/injection, schedule: Q01DX001 (iv), vehicle: saline) was 91 % of control, the T/C (dose: 19.8 mg/kg/injection, schedule: Q04DX003 (ip), vehicle: saline) was 171 % of control and the T/C (dose: 19.8 mg/kg/injection, schedule: Q04DX003 (iv), vehicle: saline) was 117 % of control. The T/C (dose: 20.0 mg/kg/injection, schedule: Q01DX004 (ip), vehicle: saline) was 225 % of control, the T/C (dose: 25.0 mg/kg/injection, schedule: Q04DX003 (ip), vehicle: dextrose) was 203 % of control and the T/C (dose: 26.3 mg/kg/injection, schedule: Q01DX001 (ip), vehicle: saline) was 109 % of control and 217 % of control. The T/C (dose: 26.3 mg/kg/injection, schedule: Q01DX001 (iv), vehicle: saline) was 118 % of control and 94 % of control, the T/C (dose: 29.6 mg/kg/injection, schedule: Q04DX003 (ip), vehicle: saline) was 225 % of control and the T/C (dose: 29.6 mg/kg/injection, schedule: Q04DX003 (iv), vehicle: saline) was 162 % of control. The T/C (dose: 30.0 mg/kg/injection, schedule: Q04DX004 (iv), vehicle: other) was 154 % of control, the T/C (dose: 33.0 mg/kg/injection, schedule: Q04DX002 (iv), vehicle: other) was 109 % of control and the T/C (dose: 39.5 mg/kg/injection, schedule: Q01DX001 (ip), vehicle: saline) was 168 % of control. For the same molecule, the T/C (dose: 39.5 mg/kg/injection, schedule: Q01DX001 (iv), vehicle: saline) was 95 % of control, the T/C (dose: 40.0 mg/kg/injection, schedule: Q01DX004 (ip), vehicle: saline) was 380 % of control and the T/C (dose: 44.0 mg/kg/injection, schedule: Q04DX004 (iv), vehicle: other) was 226 % of control. For the same molecule, the T/C (dose: 44.4 mg/kg/injection, schedule: Q04DX003 (ip), vehicle: saline) was 257 % of control, the T/C (dose: 44.4 mg/kg/injection, schedule: Q04DX003 (iv), vehicle: saline) was 188 % of control and the T/C (dose: 50.0 mg/kg/injection, schedule: Q04DX003 (ip), vehicle: dextrose) was 228 % of control. For the same molecule, the T/C (dose: 59.3 mg/kg/injection, schedule: Q01DX001 (ip), vehicle: saline) was 217 % of control, the T/C (dose: 59.3 mg/kg/injection, schedule: Q01DX001 (iv), vehicle: saline) was 103 % of control and 118 % of control and the T/C (dose: 60.0 mg/kg/injection, schedule: Q01DX004 (ip), vehicle: saline) was 324 % of control. For the same molecule, the T/C (dose: 65.0 mg/kg/injection, schedule: Q04DX004 (iv), vehicle: other) was 253 % of control, the T/C (dose: 66.7 mg/kg/injection, schedule: Q04DX003 (ip), vehicle: saline) was 151 % of control and the T/C (dose: 87.0 mg/kg/injection, schedule: Q04DX002 (iv), vehicle: other) was 183 % of control. For the same molecule, the T/C (dose: 88.9 mg/kg/injection, schedule: Q01DX001 (ip), vehicle: saline) was 217 % of control and 257 % of control, the T/C (dose: 88.9 mg/kg/injection, schedule: Q01DX001 (iv), vehicle: saline) was 102 % of control and the T/C (dose: 100.0 mg/kg/injection, schedule: Q04DX003 (ip), vehicle: saline) was 257 % of control. The T/C (dose: 100.0 mg/kg/injection, schedule: Q04DX003 (iv), vehicle: saline) was 168 % of control, the T/C (dose: 133.0 mg/kg/injection, schedule: Q01DX001 (ip), vehicle: saline) was 217 % of control and 257 % of control and the T/C (dose: 133.0 mg/kg/injection, schedule: Q01DX001 (iv), vehicle: saline) was 121 % of control and 257 % of control. The T/C (dose: 200.0 mg/kg/injection, schedule: Q01DX001 (ip), vehicle: saline) was 217 % of control and 257 % of control.

With `Cc1cc(C)c(-c2cc(O)c(C)cc2O)c(C)c1` the T/C (dose: 12.5 mg/kg/injection, schedule: Q04DX003 (ip), vehicle: saline with Tween-80) was 107 % of control, the T/C (dose: 25.0 mg/kg/injection, schedule: Q04DX003 (ip), vehicle: saline with Tween-80) was 109 % of control and the T/C (dose: 50.0 mg/kg/injection, schedule: Q04DX003 (ip), vehicle: saline with Tween-80) was 106 % of control. The T/C (dose: 100.0 mg/kg/injection, schedule: Q04DX003 (ip), vehicle: saline with Tween-80) was 112 % of control and the T/C (dose: 200.0 mg/kg/injection, schedule: Q04DX003 (ip), vehicle: saline with Tween-80) was 112 % of control.

For `CC(=O)OCC(=O)[C@@]12OC(C)(C)O[C@@H]1C[C@H]1[C@@H]3CC(C=O)=C4C=C(OCCCl)CC[C@]4(C)[C@@]3(F)[C@@H](O)C[C@@]12C`, the T/C (dose: 0.39 mg/kg/injection, schedule: Q04DX002 (ip), vehicle: Klucel (hydroxypropylcellulose) (HPC)) was 94 % of control, the T/C (dose: 0.78 mg/kg/injection, schedule: Q04DX002 (ip), vehicle: Klucel (hydroxypropylcellulose) (HPC)) was 89 % of control and the T/C (dose: 1.56 mg/kg/injection, schedule: Q04DX002 (ip), vehicle: Klucel (hydroxypropylcellulose) (HPC)) was 93 % of control. For the same molecule, the T/C (dose: 3.13 mg/kg/injection, schedule: Q04DX002 (ip), vehicle: Klucel (hydroxypropylcellulose) (HPC)) was 95 % of control, the T/C (dose: 6.25 mg/kg/injection, schedule: Q04DX002 (ip), vehicle: Klucel (hydroxypropylcellulose) (HPC)) was 91 % of control and the T/C (dose: 12.5 mg/kg/injection, schedule: Q04DX002 (ip), vehicle: Klucel (hydroxypropylcellulose) (HPC)) was 88 % of control.

With `O=NN(CCCl)C(=O)NC1CCC(=O)NC1=O` (stereo not drawn) the T/C (dose: 2.8 mg/kg/injection, schedule: Q04DX003 (ip), vehicle: saline with Tween-80) was 243 % of control, the T/C (dose: 5.1 mg/kg/injection, schedule: Q07DX002 (oral), vehicle: saline with Tween-80) was 179 % of control and the T/C (dose: 5.1 mg/kg/injection, schedule: Q07DX003 (oral), vehicle: saline with Tween-80) was 224 % of control. For the same molecule, the T/C (dose: 5.1 mg/kg/injection, schedule: Q07DX004 (oral), vehicle: saline with Tween-80) was 215 % of control, the T/C (dose: 5.2 mg/kg/injection, schedule: Q04DX003 (oral), vehicle: saline with Tween-80) was 269 % of control and the T/C (dose: 5.6 mg/kg/injection, schedule: Q04DX003 (ip), vehicle: saline with Tween-80) was 269 % of control. The T/C (dose: 7.7 mg/kg/injection, schedule: Q01DX001 (oral), vehicle: saline with Tween-80) was 165 % of control, the T/C (dose: 7.7 mg/kg/injection, schedule: Q07DX002 (oral), vehicle: saline with Tween-80) was 204 % of control and the T/C (dose: 7.7 mg/kg/injection, schedule: Q07DX003 (oral), vehicle: saline with Tween-80) was 250 % of control. The T/C (dose: 7.7 mg/kg/injection, schedule: Q07DX004 (oral), vehicle: saline with Tween-80) was 265 % of control, the T/C (dose: 8.5 mg/kg/injection, schedule: Q04DX003 (oral), vehicle: saline with Tween-80) was 280 % of control and the T/C (dose: 11.25 mg/kg/injection, schedule: Q04DX003 (ip), vehicle: saline with Tween-80) was 269 % of control. The T/C (dose: 11.5 mg/kg/injection, schedule: Q01DX001 (oral), vehicle: saline with Tween-80) was 189 % of control, the T/C (dose: 11.5 mg/kg/injection, schedule: Q07DX002 (oral), vehicle: saline with Tween-80) was 251 % of control and the T/C (dose: 11.5 mg/kg/injection, schedule: Q07DX003 (oral), vehicle: saline with Tween-80) was 255 % of control. The T/C (dose: 11.5 mg/kg/injection, schedule: Q07DX004 (oral), vehicle: saline with Tween-80) was 369 % of control, the T/C (dose: 13.6 mg/kg/injection, schedule: Q04DX003 (oral), vehicle: saline with Tween-80) was 307 % of control and the T/C (dose: 17.4 mg/kg/injection, schedule: Q01DX001 (oral), vehicle: saline with Tween-80) was 189 % of control. For the same molecule, the T/C (dose: 17.4 mg/kg/injection, schedule: Q07DX002 (oral), vehicle: saline with Tween-80) was 230 % of control, the T/C (dose: 17.4 mg/kg/injection, schedule: Q07DX003 (oral), vehicle: saline with Tween-80) was 369 % of control and the T/C (dose: 17.4 mg/kg/injection, schedule: Q07DX004 (oral), vehicle: saline with Tween-80) was 261 % of control. For the same molecule, the T/C (dose: 26.0 mg/kg/injection, schedule: Q01DX001 (oral), vehicle: saline with Tween-80) was 210 % of control, the T/C (dose: 26.0 mg/kg/injection, schedule: Q07DX002 (oral), vehicle: saline with Tween-80) was 405 % of control and the T/C (dose: 26.0 mg/kg/injection, schedule: Q07DX003 (oral), vehicle: saline with Tween-80) was 184 % of control. The T/C (dose: 39.0 mg/kg/injection, schedule: Q01DX001 (oral), vehicle: saline with Tween-80) was 278 % of control.

With `C[C@]12C=CC(=O)C=C1CC[C@@H]1[C@@H]2C(=O)C[C@@]2(C)[C@H]1CC[C@]2(O)C(=O)CO` the T/C (dose: 25.0 mg/kg/injection, schedule: Q04DX003 (ip), vehicle: Klucel (hydroxypropylcellulose) (HPC)) was 105 % of control, the T/C (dose: 50.0 mg/kg/injection, schedule: Q04DX003 (ip), vehicle: Klucel (hydroxypropylcellulose) (HPC)) was 100 % of control and the T/C (dose: 100.0 mg/kg/injection, schedule: Q04DX003 (ip), vehicle: Klucel (hydroxypropylcellulose) (HPC)) was 100 % of control. For the same molecule, the T/C (dose: 200.0 mg/kg/injection, schedule: Q04DX003 (ip), vehicle: Klucel (hydroxypropylcellulose) (HPC)) was 96 % of control and the T/C (dose: 400.0 mg/kg/injection, schedule: Q04DX003 (ip), vehicle: Klucel (hydroxypropylcellulose) (HPC)) was 98 % of control.

From PubChem BioAssay AID210 (DTP/NCI, 2004)
